Reference: ChEMBL document CHEMBL5325488, “Discovery of SMD-3040 as a Potent and Selective SMARCA2 PROTAC Degrader with Strong in vivo Antitumor Activity” (J Med Chem, 2023)
pKd: −log10 of the molar value. Each block holds one compound with its values, some of them ahead of it.

Assays:
[1] = test system: NCI-H647; test: Antiproliferative activity against human NCI-H647 cells expressing wild-type SMARCA2 assessed as cell growth inhibition measured after 7 days by WST-8 assay; type: functional; conditions: NCI-H647, 168 h, time 7 day
[2] = biological target: T1, von Hippel-Lindau disease tumor suppressor/SWI/SNF-related matrix-associated actin-dependent regulator of chromatin subfamily A member 2 (Homo sapiens, UniProt P51531+P40337); test: PROTAC activity at VHL/C-terminal HiBiT fused SMARCA2 in human HeLa cells assessed as induction of SMARCA2 degradation by measuring maximal efficacy incubated for 24 hrs by Nano-Glo HiBiT analysis relative to control; type: cell-based
Target sequence in this assay (P40337 whole entry, looked up, the tested form may be a part): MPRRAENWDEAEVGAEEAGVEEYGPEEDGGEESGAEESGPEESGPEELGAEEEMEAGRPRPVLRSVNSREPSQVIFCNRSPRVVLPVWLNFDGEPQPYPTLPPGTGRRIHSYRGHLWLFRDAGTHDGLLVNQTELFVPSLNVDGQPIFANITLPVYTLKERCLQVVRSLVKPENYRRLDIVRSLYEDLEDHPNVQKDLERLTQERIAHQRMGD
Target sequence in this assay (P51531 whole entry, looked up, the tested form may be a part): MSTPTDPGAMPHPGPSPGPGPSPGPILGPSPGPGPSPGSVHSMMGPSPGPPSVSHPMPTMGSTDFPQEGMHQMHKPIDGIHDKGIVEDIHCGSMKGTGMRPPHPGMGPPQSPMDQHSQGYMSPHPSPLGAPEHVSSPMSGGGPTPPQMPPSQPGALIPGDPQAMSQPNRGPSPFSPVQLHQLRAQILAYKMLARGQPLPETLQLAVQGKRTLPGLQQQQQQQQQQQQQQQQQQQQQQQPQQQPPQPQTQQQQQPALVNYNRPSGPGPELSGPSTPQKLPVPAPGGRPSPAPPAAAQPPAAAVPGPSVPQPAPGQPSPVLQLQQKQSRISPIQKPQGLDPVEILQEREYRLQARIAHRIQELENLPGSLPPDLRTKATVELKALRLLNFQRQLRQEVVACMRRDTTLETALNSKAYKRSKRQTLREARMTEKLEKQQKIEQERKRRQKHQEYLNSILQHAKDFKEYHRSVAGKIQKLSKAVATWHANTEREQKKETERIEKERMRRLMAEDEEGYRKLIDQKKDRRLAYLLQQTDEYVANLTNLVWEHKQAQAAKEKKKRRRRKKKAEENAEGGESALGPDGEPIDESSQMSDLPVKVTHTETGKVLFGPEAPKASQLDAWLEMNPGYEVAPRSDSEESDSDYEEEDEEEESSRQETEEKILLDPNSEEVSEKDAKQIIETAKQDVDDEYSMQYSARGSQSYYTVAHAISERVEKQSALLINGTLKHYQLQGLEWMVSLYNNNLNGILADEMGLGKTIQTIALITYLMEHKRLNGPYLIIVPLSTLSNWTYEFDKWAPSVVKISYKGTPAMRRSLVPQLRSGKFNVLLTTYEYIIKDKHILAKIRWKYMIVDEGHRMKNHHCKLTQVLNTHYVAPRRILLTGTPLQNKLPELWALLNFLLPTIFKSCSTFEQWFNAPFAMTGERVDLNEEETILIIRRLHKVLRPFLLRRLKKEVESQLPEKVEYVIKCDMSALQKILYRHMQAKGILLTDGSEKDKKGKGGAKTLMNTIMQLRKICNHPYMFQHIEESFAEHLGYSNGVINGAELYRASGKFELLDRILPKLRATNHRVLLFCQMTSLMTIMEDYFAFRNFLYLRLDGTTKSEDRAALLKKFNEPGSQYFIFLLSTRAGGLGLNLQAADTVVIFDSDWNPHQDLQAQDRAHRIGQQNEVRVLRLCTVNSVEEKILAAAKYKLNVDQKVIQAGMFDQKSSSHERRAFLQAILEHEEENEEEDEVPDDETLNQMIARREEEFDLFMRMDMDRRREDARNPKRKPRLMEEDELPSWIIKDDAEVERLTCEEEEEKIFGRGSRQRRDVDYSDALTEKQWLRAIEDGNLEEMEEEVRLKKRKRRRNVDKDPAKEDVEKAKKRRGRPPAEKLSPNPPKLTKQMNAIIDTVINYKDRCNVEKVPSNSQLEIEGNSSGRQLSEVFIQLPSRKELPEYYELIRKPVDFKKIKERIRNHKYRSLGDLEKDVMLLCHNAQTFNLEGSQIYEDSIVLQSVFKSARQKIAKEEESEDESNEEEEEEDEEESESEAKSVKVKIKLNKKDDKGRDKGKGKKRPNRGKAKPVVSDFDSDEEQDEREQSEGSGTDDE

[3] = test system: NCI-H647; test: Antiproliferative activity against human NCI-H647 cells expressing wild-type SMARCA2 assessed as cell growth inhibition by measuring maximal efficacy measured after 7 days by WST-8 assay relative to control; type: functional; conditions: time 7 day
[4] = biological target: T2, von Hippel-Lindau disease tumor suppressor/SWI/SNF-related matrix-associated actin-dependent regulator of chromatin subfamily A member 4 (Homo sapiens, UniProt P51532+P40337); test: PROTAC activity at VHL/SMARCA4 in human SW1573 cells assessed as induction of […] degradation incubated for 20 hrs by Western blotting analysis; type: cell-based
[5] = biological target: T1, von Hippel-Lindau disease tumor suppressor/SWI/SNF-related matrix-associated actin-dependent regulator of chromatin subfamily A member 2; test: PROTAC activity at VHL/C-terminal HiBiT fused SMARCA2 in human HeLa cells assessed as induction of SMARCA2 degradation at 0.000001 to 1 uM by Nano-Glo HiBiT analysis; type: cell-based; conditions: dose lower 1e-06 µM, dose upper 1.0 µM, time 6-48 hrs, TDE = time-dependent effect
Target sequence in this assay (P40337 whole entry, looked up, the tested form may be a part): as the sequence (P40337 whole entry, looked up, the tested form may be a part) above
Target sequence in this assay (P51531 whole entry, looked up, the tested form may be a part): as the sequence (P51531 whole entry, looked up, the tested form may be a part) above

[6] = test system: NCI-H1793; test: Antiproliferative activity against SMARCA4-deficient human NCI-H1793 cells assessed as cell growth inhibition by measuring maximal efficacy measured after 7 days by WST-8 assay relative to control; type: functional; conditions: time 7 day
[7] = biological target: T2, von Hippel-Lindau disease tumor suppressor/SWI/SNF-related matrix-associated actin-dependent regulator of chromatin subfamily A member 4; test: PROTAC activity at VHL/SMARCA4 in human SW1573 cells assessed as induction of […] degradation by measuring maximal efficacy incubated for 20 hrs by Western blotting analysis relative to control; type: cell-based
Target sequence in this assay (P40337 whole entry, looked up, the tested form may be a part): as the sequence (P40337 whole entry, looked up, the tested form may be a part) above
Target sequence in this assay (P51532 whole entry, looked up, the tested form may be a part): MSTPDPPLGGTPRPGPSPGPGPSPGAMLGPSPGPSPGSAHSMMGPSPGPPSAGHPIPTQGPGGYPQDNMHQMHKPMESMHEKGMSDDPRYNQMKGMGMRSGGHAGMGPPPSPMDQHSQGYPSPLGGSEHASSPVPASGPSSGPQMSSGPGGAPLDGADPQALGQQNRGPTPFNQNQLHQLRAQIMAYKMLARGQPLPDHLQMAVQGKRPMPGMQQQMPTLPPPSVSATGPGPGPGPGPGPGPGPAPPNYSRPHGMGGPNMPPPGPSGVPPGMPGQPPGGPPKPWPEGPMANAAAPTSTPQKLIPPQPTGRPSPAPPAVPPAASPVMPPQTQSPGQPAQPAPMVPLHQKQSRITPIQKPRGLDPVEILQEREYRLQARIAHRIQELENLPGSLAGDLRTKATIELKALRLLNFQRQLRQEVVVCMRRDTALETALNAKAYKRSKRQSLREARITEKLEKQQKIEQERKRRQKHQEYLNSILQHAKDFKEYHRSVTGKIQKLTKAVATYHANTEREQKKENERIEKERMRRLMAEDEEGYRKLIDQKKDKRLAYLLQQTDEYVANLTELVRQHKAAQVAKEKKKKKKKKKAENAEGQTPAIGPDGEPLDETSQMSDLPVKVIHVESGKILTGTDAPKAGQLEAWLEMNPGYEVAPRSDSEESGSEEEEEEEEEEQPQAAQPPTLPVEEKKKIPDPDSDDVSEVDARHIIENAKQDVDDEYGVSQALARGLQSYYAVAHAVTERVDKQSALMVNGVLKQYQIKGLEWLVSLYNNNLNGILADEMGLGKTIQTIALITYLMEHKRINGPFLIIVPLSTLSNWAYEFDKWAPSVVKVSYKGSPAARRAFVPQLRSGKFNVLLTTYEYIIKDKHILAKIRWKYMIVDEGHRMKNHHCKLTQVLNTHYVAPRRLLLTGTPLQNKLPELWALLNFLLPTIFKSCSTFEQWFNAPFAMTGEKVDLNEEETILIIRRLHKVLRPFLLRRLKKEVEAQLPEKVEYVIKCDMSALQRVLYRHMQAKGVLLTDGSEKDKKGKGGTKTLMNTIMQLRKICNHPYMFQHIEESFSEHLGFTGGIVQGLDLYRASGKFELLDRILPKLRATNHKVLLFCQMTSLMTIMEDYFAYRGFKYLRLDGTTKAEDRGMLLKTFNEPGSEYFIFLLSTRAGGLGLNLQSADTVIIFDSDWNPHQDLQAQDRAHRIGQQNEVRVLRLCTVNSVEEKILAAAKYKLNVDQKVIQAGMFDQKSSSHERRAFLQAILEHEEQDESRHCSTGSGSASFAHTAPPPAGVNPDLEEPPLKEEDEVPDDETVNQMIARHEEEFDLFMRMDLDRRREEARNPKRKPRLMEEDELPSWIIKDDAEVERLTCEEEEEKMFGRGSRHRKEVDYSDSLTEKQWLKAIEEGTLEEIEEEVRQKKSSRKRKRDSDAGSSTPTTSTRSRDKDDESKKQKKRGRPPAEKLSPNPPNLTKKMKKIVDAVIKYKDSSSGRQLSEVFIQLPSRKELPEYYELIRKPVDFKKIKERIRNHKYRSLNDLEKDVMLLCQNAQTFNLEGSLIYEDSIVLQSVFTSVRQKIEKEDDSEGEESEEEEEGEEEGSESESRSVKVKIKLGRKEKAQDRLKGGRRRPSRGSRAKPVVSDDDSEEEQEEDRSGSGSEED

[8] = test system: NCI-H1975; test: Antiproliferative activity against human NCI-H1975 cells expressing wild-type SMARCA2 assessed as cell growth inhibition measured after 7 days by WST-8 assay; type: functional; conditions: NCI-H1975, 168 h, time 7 day
[9] = biological target: T2, von Hippel-Lindau disease tumor suppressor/SWI/SNF-related matrix-associated actin-dependent regulator of chromatin subfamily A member 4; test: PROTAC activity at VHL/C-terminal HiBiT fused SMARCA4 in human HeLa cells assessed as induction of SMARCA4 degradation incubated for 24 hrs by Nano-Glo HiBiT analysis; type: cell-based
[10] = biological target: T1, von Hippel-Lindau disease tumor suppressor/SWI/SNF-related matrix-associated actin-dependent regulator of chromatin subfamily A member 2; test: PROTAC activity at VHL/SMARCA2 in human SW1573 cells assessed as induction of SMARCA2 degradation incubated for 20 hrs by Western blotting analysis; type: cell-based
[11] = test system: A549; test: Antiproliferative activity against SMARCA4-deficient human A549 cells assessed as cell growth inhibition measured after 7 days by WST-8 assay; type: functional; conditions: A549, 168 h, time 7 day
[12] = test system: SK-MEL-28; test: Antiproliferative activity against human SK-MEL-28 cells expressing wild-type SMARCA2 assessed as cell growth inhibition by measuring maximal efficacy measured after 7 days by WST-8 assay relative to control; type: functional; conditions: time 7 day
[13] = Antiproliferative activity against SMARCA4-deficient human NCI-H1568 cells assessed as cell growth inhibition by measuring maximal efficacy measured after 7 days by WST-8 assay relative to control; type: functional; conditions: time 7 day
[14] = test system: NCI-H1792; test: Antiproliferative activity against human NCI-H1792 cells expressing wild-type SMARCA2 assessed as cell growth inhibition measured after 7 days by WST-8 assay; type: functional; conditions: NCI-H1792, 168 h, time 7 day
[15] = test system: NCI-H1975; test: Antiproliferative activity against human NCI-H1975 cells expressing wild-type SMARCA2 assessed as cell growth inhibition by measuring maximal efficacy measured after 7 days by WST-8 assay relative to control; type: functional; conditions: time 7 day
[16] = biological target: T2, von Hippel-Lindau disease tumor suppressor/SWI/SNF-related matrix-associated actin-dependent regulator of chromatin subfamily A member 4; test: PROTAC activity at VHL/C-terminal HiBiT fused SMARCA4 in human HeLa cells assessed as induction of SMARCA4 degradation at 0.00001 to 1 uM by Nano-Glo HiBiT analysis; type: cell-based; conditions: dose lower 1e-05 µM, dose upper 1.0 µM, time 6-48 hrs, TDE = time-dependent effect
Target sequence in this assay (P40337 whole entry, looked up, the tested form may be a part): as the sequence (P40337 whole entry, looked up, the tested form may be a part) above
Target sequence in this assay (P51532 whole entry, looked up, the tested form may be a part): as the sequence (P51532 whole entry, looked up, the tested form may be a part) above

[17] = test system: SK-MEL-5; test: Antiproliferative activity against SMARCA4-deficient human SK-MEL-5 cells assessed as cell growth inhibition by measuring maximal efficacy measured after 7 days by WST-8 assay relative to control; type: functional; conditions: time 7 day
[18] = Antiproliferative activity against SMARCA4-deficient human NCI-H1568 cells assessed as cell growth inhibition measured after 7 days by WST-8 assay; type: functional; conditions: NCI-H1568, 168 h, time 7 day
[19] = test system: NCI-H1299; test: Antiproliferative activity against SMARCA4-deficient human NCI-H1299 cells assessed as cell growth inhibition measured after 7 days by WST-8 assay; type: functional; conditions: NCI-H1299, 168 h, time 7 day
[20] = biological target: T1, von Hippel-Lindau disease tumor suppressor/SWI/SNF-related matrix-associated actin-dependent regulator of chromatin subfamily A member 2; test: PROTAC activity at VHL/C-terminal HiBiT fused SMARCA2 in human HeLa cells assessed as induction of SMARCA2 degradation incubated for 24 hrs by Nano-Glo HiBiT analysis; type: cell-based
[21] = test system: NCI-H1793; test: Antiproliferative activity against SMARCA4-deficient human NCI-H1793 cells assessed as cell growth inhibition measured after 7 days by WST-8 assay; type: functional; conditions: NCI-H1793, 168 h, time 7 day
[22] = test system: NCI-H1693; test: Antiproliferative activity against SMARCA4-deficient human NCI-H1693 cells assessed as cell growth inhibition measured after 7 days by WST-8 assay; type: functional; conditions: NCI-H1693, 168 h, time 7 day
[23] = test system: NCI-H1299; test: Antiproliferative activity against SMARCA4-deficient human NCI-H1299 cells assessed as cell growth inhibition by measuring maximal efficacy measured after 7 days by WST-8 assay relative to control; type: functional; conditions: time 7 day
[24] = test system: NCI-H1693; test: Antiproliferative activity against SMARCA4-deficient human NCI-H1693 cells assessed as cell growth inhibition by measuring maximal efficacy measured after 7 days by WST-8 assay relative to control; type: functional; conditions: time 7 day
[25] = biological target: T1, von Hippel-Lindau disease tumor suppressor/SWI/SNF-related matrix-associated actin-dependent regulator of chromatin subfamily A member 2; test: PROTAC activity at VHL/C-terminal HiBiT fused SMARCA2 in human HeLa cells assessed as induction of SMARCA2 degradation incubated for 6 to 48 hrs by Nano-Glo HiBiT analysis; type: cell-based; conditions: dose lower 1e-06 µM, dose upper 1.0 µM, time 6-48 hrs
Target sequence in this assay (P40337 whole entry, looked up, the tested form may be a part): as the sequence (P40337 whole entry, looked up, the tested form may be a part) above
Target sequence in this assay (P51531 whole entry, looked up, the tested form may be a part): as the sequence (P51531 whole entry, looked up, the tested form may be a part) above

[26] = test system: SK-MEL-5; test: Antiproliferative activity against SMARCA4-deficient human SK-MEL-5 cells assessed as cell growth inhibition measured after 7 days by WST-8 assay; type: functional; conditions: SK-MEL-5, 168 h, time 7 day
[27] = test system: NCI-H838; test: Antiproliferative activity against SMARCA4-deficient human NCI-H838 cells assessed as cell growth inhibition by measuring maximal efficacy measured after 7 days by WST-8 assay relative to control; type: functional; conditions: time 7 day
[28] = test system: NCI-H838; test: Antiproliferative activity against SMARCA4-deficient human NCI-H838 cells assessed as cell growth inhibition measured after 7 days by WST-8 assay; type: functional; conditions: NCI-H838, 168 h, time 7 day
[29] = test system: NCI-H1944; test: Antiproliferative activity against SMARCA4-deficient human NCI-H1944 cells assessed as cell growth inhibition measured after 7 days by WST-8 assay; type: functional; conditions: NCI-H1944, 168 h, time 7 day
[30] = test system: NCI-H1944; test: Antiproliferative activity against SMARCA4-deficient human NCI-H1944 cells assessed as cell growth inhibition by measuring maximal efficacy measured after 7 days by WST-8 assay relative to control; type: functional; conditions: time 7 day
[31] = biological target: T2, von Hippel-Lindau disease tumor suppressor/SWI/SNF-related matrix-associated actin-dependent regulator of chromatin subfamily A member 4; test: PROTAC activity at VHL/C-terminal HiBiT fused SMARCA4 in human HeLa cells assessed as induction of SMARCA4 degradation by measuring maximal efficacy incubated for 24 hrs by Nano-Glo HiBiT analysis relative to control; type: cell-based
Target sequence in this assay (P40337 whole entry, looked up, the tested form may be a part): as the sequence (P40337 whole entry, looked up, the tested form may be a part) above
Target sequence in this assay (P51532 whole entry, looked up, the tested form may be a part): as the sequence (P51532 whole entry, looked up, the tested form may be a part) above

[32] = test system: NCI-H1792; test: Antiproliferative activity against human NCI-H1792 cells expressing wild-type SMARCA2 assessed as cell growth inhibition by measuring maximal efficacy measured after 7 days by WST-8 assay relative to control; type: functional; conditions: time 7 day
[33] = test system: A549; test: Antiproliferative activity against SMARCA4-deficient human A549 cells assessed as cell growth inhibition by measuring maximal efficacy measured after 7 days by WST-8 assay relative to control; type: functional; conditions: time 7 day
[34] = test system: SK-MEL-28; test: Antiproliferative activity against human SK-MEL-28 cells expressing wild-type SMARCA2 assessed as cell growth inhibition measured after 7 days by WST-8 assay; type: functional; conditions: SK-MEL-28, 168 h, time 7 day
[35] = biological target: T1, von Hippel-Lindau disease tumor suppressor/SWI/SNF-related matrix-associated actin-dependent regulator of chromatin subfamily A member 2; test: PROTAC activity at VHL/SMARCA2 in human SW1573 cells assessed as induction of SMARCA2 degradation by measuring maximal efficacy incubated for 20 hrs by Western blotting analysis relative to control; type: cell-based
Target sequence in this assay (P40337 whole entry, looked up, the tested form may be a part): as the sequence (P40337 whole entry, looked up, the tested form may be a part) above
Target sequence in this assay (P51531 whole entry, looked up, the tested form may be a part): as the sequence (P51531 whole entry, looked up, the tested form may be a part) above

[36] = biological target: T2, von Hippel-Lindau disease tumor suppressor/SWI/SNF-related matrix-associated actin-dependent regulator of chromatin subfamily A member 4; test: PROTAC activity at VHL/C-terminal HiBiT fused SMARCA4 in human HeLa cells assessed as induction of SMARCA4 degradation incubated for 6 to 48 hrs by Nano-Glo HiBiT analysis; type: cell-based; conditions: dose lower 1e-05 µM, dose upper 1.0 µM, time 6-48 hrs
Target sequence in this assay (P40337 whole entry, looked up, the tested form may be a part): as the sequence (P40337 whole entry, looked up, the tested form may be a part) above
Target sequence in this assay (P51532 whole entry, looked up, the tested form may be a part): as the sequence (P51532 whole entry, looked up, the tested form may be a part) above

[37] = biological target: T1, von Hippel-Lindau disease tumor suppressor/SWI/SNF-related matrix-associated actin-dependent regulator of chromatin subfamily A member 2; test: PROTAC activity at VHL/SMARCA2 in human MV4-11 cells assessed as induction of SMARCA2 degradation by measuring maximal efficacy incubated for 18 hrs by Western blotting analysis relative to control; type: cell-based
Target sequence in this assay (P40337 whole entry, looked up, the tested form may be a part): as the sequence (P40337 whole entry, looked up, the tested form may be a part) above
Target sequence in this assay (P51531 whole entry, looked up, the tested form may be a part): as the sequence (P51531 whole entry, looked up, the tested form may be a part) above

[38] = biological target: T2, von Hippel-Lindau disease tumor suppressor/SWI/SNF-related matrix-associated actin-dependent regulator of chromatin subfamily A member 4; test: PROTAC activity at VHL/SMARCA4 in human MV4-11 cells assessed as induction of […] degradation by measuring maximal efficacy incubated for 18 hrs by Western blotting analysis relative to control; type: cell-based
Target sequence in this assay (P40337 whole entry, looked up, the tested form may be a part): as the sequence (P40337 whole entry, looked up, the tested form may be a part) above
Target sequence in this assay (P51532 whole entry, looked up, the tested form may be a part): as the sequence (P51532 whole entry, looked up, the tested form may be a part) above

[39] = biological target: SWI/SNF-related matrix-associated actin-dependent regulator of chromatin subfamily A member 2 (Homo sapiens, UniProt P51531); test: Binding affinity to SMARCA2 (unknown origin)
[40] = biological target: SWI/SNF-related matrix-associated actin-dependent regulator of chromatin subfamily A member 4 (Homo sapiens, UniProt P51532); test: Binding affinity to SMARCA4 (unknown origin)

GI50 [1]: 8.1 nM
Emax [2]: 96%
DC50 [4]: 1.1 nM
Activity [5]: Tde
Emax [7]: 92%
GI50 [8]: 18 nM
DC50 [9]: 2 nM
DC50 [10]: 0.039 nM
GI50 [11]: 3.3 nM
GI50 [14]: 17 nM
Activity [16]: Tde
GI50 [19]: 31 nM
DC50 [20]: 0.12 nM
GI50 [21]: 1 nM
GI50 [22]: 0.2 nM
Activity [25]: Dose-Dependent Effect
GI50 [26]: 0.4 nM
GI50 [28]: 5 nM
GI50 [29]: 0.9 nM
Emax [31]: 98%
GI50 [34]: 8.1 nM
Emax [35]: 96%
Activity [36]: Dose-Dependent Effect
Structure (SMILES): Cc1ncsc1-c1ccc([C@H](C)NC(=O)[C@@H]2C[C@@H](O)CN2C(=O)[C@@H](c2cc(N3CCC(CN4CCC(O[C@H]5C[C@H](Oc6cccc(CN7C8CCC7CN(c7cc(-c9ccccc9O)nnc7N)C8)c6)C5)CC4)CC3)no2)C(C)C)cc1
Imax [3]: 68%
Imax [6]: 67%
Imax [12]: 92%
Imax [13]: 84%
Imax [15]: 50%
Imax [17]: 96%
GI50 [18]: 0.3 nM
Imax [23]: 68%
Imax [24]: 82%
Imax [27]: 93%
Imax [30]: 87%
Imax [32]: 69%
Imax [33]: 52%

Emax [37]: > 95%
Emax [38]: > 95%
Structure (SMILES): Cc1ncsc1-c1ccc(CNC(=O)[C@@H]2C[C@@H](O)CN2C(=O)[C@@H](NC(=O)C2(F)CC2)C(C)(C)C)c(OCCOc2ccc(CN3CCN(c4cc(-c5ccccc5O)nnc4N)CC3)cc2)c1

pKd [39]: 8.00
pKd [40]: 7.89
Structure (SMILES): Cn1cc(-c2cc(-c3ccccc3O)nnc2N)cn1
